Measurements as given in US12324843B2, “Compositions and methods for delivery of biomacromolecule agents” (The Regents of the University of Michigan, priority 2015, dated 2025).
Residues, ends and D or L forms follow the SMILES beside them. *: point of attachment. FITC = O=C1OC2(c3ccc(O)cc3Oc3cc(O)ccc32)c2ccc(NC(=S)*)cc21

Experiment: Lymph node draining study (IVIS)
Type: in vivo, C57BL/6 mice
Conditions: 31 nmol s.c. at tail base, after 1 day
Description: sHDL-[…](FITC)L was prepared as described above. Female C57BL/6 mice of age 6-8 weeks were purchased from Harlan Laboratories. C57BL/6 mice were subcutaneously injected with free […](FITC)L or sHDL-[…](FITC)L. 24 hours after injection, mice were euthanized by carbon dioxide inhalation and axillary lymph nodes and inguinal lymph nodes were harvested and imaged with IVIS optical imaging system (Caliper Lifesciences).
For lymph node draining studies, C57BL/6 mice were injected with free CSSSIINFBK(FITC)L, sHDL-CSSSIINFBK(FITC)L, free Cho-CpG(Cy5), or sHDL-Cho-CpG(Cy5). After 24 h, inguinal lymph nodes were harvested, and FITC or Cy5 fluorescence signal was measured with IVIS optical imaging system (Caliper Life Sciences).

FITC signal in inguinal dLNs: minimal FITC signal in inguinal dLNs
Structure (SMILES): CC[C@H](C)[C@H](NC(=O)[C@H](CO)NC(=O)[C@H](CO)NC(=O)[C@H](CO)NC(=O)[C@@H](N)CS)C(=O)N[C@H](C(=O)N[C@@H](CC(N)=O)C(=O)N[C@@H](Cc1ccccc1)C(=O)N[C@@H](CCC(=O)O)C(=O)N[C@@H](CCCCNC(=S)Nc1ccc2c(c1)C(=O)OC21c2ccc(O)cc2Oc2cc(O)ccc21)C(=O)N[C@@H](CC(C)C)C(=O)O)[C@@H](C)CC [free CSS-SIINFEK(FITC)L] (H-CSSSIINFEK(FITC)L-OH)
